Laboratory results as given in PubChem BioAssay AID192 (DTP/NCI, 2004).
Inconclusive results and toxic doses are left out.

System: BDF1 mice, B16 melanoma ip, median survival T/C
Assay: NCI In Vivo Anticancer Drug Screen. Data for tumor model B16 Melanoma (intraperitoneal) in B6D2F1 (BDF1) mice
Conditions: endpoint: median survival time, higher = longer survival
Method in brief: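 In this screen, activity was judged from survival or tumor size in treated versus vehicle-treated tumor-bearing mice, reported as T/C.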

[1] = dose: 100.0 mg/kg/injection, schedule: Q01DX009 (ip), vehicle: saline with Tween-80
[2] = dose: 3.12 mg/kg/injection, schedule: Q01DX009 (ip), vehicle: Klucel (hydroxypropylcellulose) (HPC)
[3] = dose: 6.25 mg/kg/injection, schedule: Q01DX009 (ip), vehicle: Klucel (hydroxypropylcellulose) (HPC)
[4] = dose: 25.0 mg/kg/injection, schedule: Q01DX009 (ip), vehicle: Klucel (hydroxypropylcellulose) (HPC)
[5] = dose: 50.0 mg/kg/injection, schedule: Q01DX009 (ip), vehicle: Klucel (hydroxypropylcellulose) (HPC)

CCCCCCCCCCCC[S+](C)C
T/C (dose: 2.0 mg/kg/injection, schedule: Q01DX009 (ip), vehicle: saline sonified): 89 % of control
T/C (dose: 4.0 mg/kg/injection, schedule: Q01DX009 (ip), vehicle: saline sonified): 102 % of control
T/C (dose: 5.0 mg/kg/injection, schedule: Q01DX009 (ip), vehicle: Klucel (hydroxypropylcellulose) (HPC)): 97 % of control
T/C (dose: 8.0 mg/kg/injection, schedule: Q01DX009 (ip), vehicle: saline sonified): 107 % of control
T/C (dose: 10.0 mg/kg/injection, schedule: Q01DX009 (ip), vehicle: Klucel (hydroxypropylcellulose) (HPC)): 100 % of control
T/C (dose: 16.0 mg/kg/injection, schedule: Q01DX009 (ip), vehicle: saline sonified): 100 % of control
T/C (dose: 20.0 mg/kg/injection, schedule: Q01DX009 (ip), vehicle: Klucel (hydroxypropylcellulose) (HPC)): 88 % of control

NC(=O)NOCC1NC(=O)C(CONC(N)=O)NC1=O (centres undefined)
T/C (dose: 100.0 mg/kg/injection, schedule: Q01DX009 (ip), vehicle: saline): 98 % of control
T/C (dose: 200.0 mg/kg/injection, schedule: Q01DX009 (ip), vehicle: saline): 94 % of control
T/C (dose: 200.0 mg/kg/injection, schedule: Q04DX003 (ip), vehicle: saline): 102 % of control
T/C (dose: 400.0 mg/kg/injection, schedule: Q01DX009 (ip), vehicle: saline): 97 % of control
T/C (dose: 400.0 mg/kg/injection, schedule: Q04DX003 (ip), vehicle: saline): 94 % of control

Nc1ncnc2c1ccn2C1OC2COP(=O)(O)OC2C1O (centres undefined)
T/C (dose: 1.0 mg/kg/injection, schedule: Q01DX009 (ip), vehicle: saline): 116 % of control
T/C (dose: 4.0 mg/kg/injection, schedule: Q01DX009 (ip), vehicle: saline): 111 % of control

CC1C2CC3C(OC(=O)C13)C2I (centres undefined)
T/C [1]: 107 % of control
T/C (dose: 200.0 mg/kg/injection, schedule: Q01DX009 (ip), vehicle: saline with Tween-80): 89 % of control

CN(C)CC/C=C1/c2ccccc2COc2ccccc21
T/C (dose: 3.12 mg/kg/injection, schedule: Q01DX009 (ip), vehicle: saline): 112 % of control
T/C (dose: 6.25 mg/kg/injection, schedule: Q01DX009 (ip), vehicle: saline): 102 % of control
T/C (dose: 12.5 mg/kg/injection, schedule: Q01DX009 (ip), vehicle: saline): 105 % of control
T/C (dose: 25.0 mg/kg/injection, schedule: Q01DX009 (ip), vehicle: saline): 112 % of control
T/C (dose: 50.0 mg/kg/injection, schedule: Q01DX009 (ip), vehicle: saline): 105 % of control

COC(=O)C1C2CC3c4[nH]c5cc(OC)ccc5c4CCN3CC2CC(OC(=O)c2cc(OC)c(OC)c(OC)c2)C1OC (centres undefined)
T/C [2]: 105 % of control
T/C [3]: 105 % of control
T/C (dose: 12.5 mg/kg/injection, schedule: Q01DX009 (ip), vehicle: Klucel (hydroxypropylcellulose) (HPC)): 110 % of control
T/C [4]: 97 % of control
T/C [5]: 90 % of control

CC1CC(=O)c2ccccc2N1S(C)(=O)=O (centres undefined)
T/C (dose: 100.0 mg/kg/injection, schedule: Q04DX003 (ip), vehicle: Klucel (hydroxypropylcellulose) (HPC)): 102 % of control
T/C (dose: 200.0 mg/kg/injection, schedule: Q04DX003 (ip), vehicle: Klucel (hydroxypropylcellulose) (HPC)): 100 % of control
T/C (dose: 400.0 mg/kg/injection, schedule: Q04DX003 (ip), vehicle: Klucel (hydroxypropylcellulose) (HPC)): 95 % of control

O=C1NC(c2ccccc2)(c2ccccc2)C(=O)N1CCN(CCCl)CCCl
T/C (dose: 1.3 mg/kg/injection, schedule: Q01DX009 (ip), vehicle: Klucel (hydroxypropylcellulose) (HPC)): 93 % of control
T/C (dose: 2.0 mg/kg/injection, schedule: Q01DX009 (ip), vehicle: Klucel (hydroxypropylcellulose) (HPC)): 105 % of control
T/C [2]: 160 % of control
T/C [3]: 161 % of control
T/C [4]: 103 % of control
T/C [5]: 153 % of control

CCN(CC)CCNc1ccc(C)c2sc3ccc(O)cc3c(=O)c12
T/C (dose: 12.5 mg/kg/injection, schedule: Q01DX009 (ip), vehicle: saline with Tween-80): 110 % of control
T/C (dose: 25.0 mg/kg/injection, schedule: Q01DX009 (ip), vehicle: saline with Tween-80): 161 % of control
T/C (dose: 50.0 mg/kg/injection, schedule: Q01DX009 (ip), vehicle: saline with Tween-80): 182 % of control
T/C [1]: 172 % of control
